Measured values reported in the supplement of paper PMC4858399.

What was measured:
[1] = test system: Caenorhabditis elegans N2; test: mean nematode size ln(EXT) after 48 h, plate-adjusted (DMSO control set to 6) (ln(EXT), control-adjusted); higher = larger nematodes / less growth inhibition; conditions: exposure time 48 h
In short: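 Each treatment used 4–6 wells of 50 synchronised C. elegans N2 L1 larvae, kept for 48 h at 20°C in K-medium with killed OP50, 1% DMSO and 0.5–200 µM chemical. Debris was excluded by a growth model after the Biosort measured per-worm extinction. Mean size per well came from natural-logged values and was plate-adjusted. That adjustment subtracted the vehicle control mean and then added 6.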

[2] = test system: Caenorhabditis elegans N2; test: lowest effective concentration for larval growth inhibition (size below effect threshold); higher = less potent; conditions: exposure time 48 h
In short: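 Each well of a 96-well plate received 50 C. elegans N2 L1 larvae, which grew for 48 h at 20°C in K-medium containing killed bacteria, 1% DMSO and the chemical at 0.5, 1, 5, 10, 50, 100 or 200 µM. A Biosort recorded the extinction of every worm as its size, and these readings were log-transformed and averaged per well. The lowest effective concentration is defined as the first dose at which the plate-adjusted mean size falls below the threshold and stays below it at all higher doses; that threshold is 5.665.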

Compound | mean nematode size ln(EXT) (ln) ([1]; 0.5 µM) | mean nematode size ln(EXT) (ln) ([1]; 1 µM) | mean nematode size ln(EXT) (ln) ([1]; 5 µM) | mean nematode size ln(EXT) (ln) ([1]; 10 µM) | mean nematode size ln(EXT) (ln) ([1]; 50 µM) | mean nematode size ln(EXT) (ln) ([1]; 100 µM) | mean nematode size ln(EXT) (ln) ([1]; 200 µM) | lowest effective concentration [2] [µM]
COC(=O)CCC(=O)OC [Dimethyl succinate] | 5.88 | 5.94 | 5.85 | 6.11 | 5.84 | 5.87 | 5.96 | > 200
CCn1nc(Cc2ccccc2)cc1C1CCN(C[C@H]2C[C@H](N(C)[C@@H](C(=O)O)C(C)C)C[C@@H]2c2cccc(F)c2)CC1 | 5.93 | 5.9 | 5.91 | 5.93 | 5.92 | 5.83 | 5.73 | > 200
Cc1ccc(C(C)C)c(O)c1 [Thymol] | 5.92 | 5.82 | 5.66 | 5.65 | 5.67 | 5.51 | 5.72 | > 200
S=C1NCCN1 [Ethylenethiourea] | 6.18 | 5.97 | 6.08 | 6.19 | 6.12 | 6.12 | 5.69 | > 200
CC1=C(C(=O)Nc2ccccc2)SCCO1 [Carboxin] | 5.77 | 5.9 | 5.83 | 5.85 | 5.84 | 5.62 | 5.9 | > 200
CCCCOC(=O)c1ccccc1C(=O)OCc1ccccc1 [Butyl benzyl phthalate] | 5.93 | 5.94 | 6.01 | 5.98 | 6.17 | 5.76 | 5.67 | > 200
Cn1ccnc1S [Methimazole] | 5.77 | 5.89 | 5.88 | 5.83 | 5.91 | 5.9 | 5.95 | > 200
CCCCC(CC)COC(=O)CCCCCCCC(=O)OCC(CC)CCCC (stereo unspecified) [Azelaic acid di(2-ethylhexyl) ester] | 5.73 | 5.62 | 5.69 | 5.67 | 5.23 | 5.44 | 5.67 | > 200
O=C1NC(=O)C(c2ccccc2)(c2ccccc2)N1 [5,5-Diphenylhydantoin] | 5.94 | 5.99 | 5.92 | 5.94 | 5.91 | 5.88 | 5.78 | > 200
COc1cc(S(=O)(=O)O)c(C)cc1N=Nc1c(O)ccc2cc(S(=O)(=O)O)ccc12 [Allura red] | 5.71 | 5.75 | 5.76 | 5.79 | 5.72 | 5.67 | 5.86 | > 200
COc1ccc2c(c1)c(CC(=O)O)c(C)n2C(=O)c1ccc(Cl)cc1 [Indomethacin] | 6.03 | 5.93 | 5.95 | 5.96 | 5.93 | 5.93 | 5.83 | > 200
[As]#[In] [Indium arsenide] | 5.78 | 5.76 | 5.77 | 5.75 | 5.54 | 5.53 | 5.86 | > 200
Cc1cccc(C)c1O [2,6-Dimethylphenol] | 5.9 | 5.89 | 5.89 | 5.78 | 5.88 | 5.65 | 5.82 | > 200
O=[N+]([O-])c1ccc(O)cc1 [4-Nitrophenol] | 5.92 | 5.82 | 5.87 | 5.69 | 5.89 | 5.8 | 5.8 | > 200
O=C(O)COc1ccc(Cl)cc1Cl [2,4-Dichlorophenoxyacetic acid (2,4-D)] | 5.91 | 5.88 | 5.96 | 5.97 | 5.83 | 6.02 | 5.89 | > 200
CCOC(=O)c1ccc(O)cc1 [Ethylparaben] | 5.98 | 5.82 | 5.93 | 5.81 | 5.84 | 5.84 | 5.74 | > 200
Cc1cccc2ccccc12 [1-Methylnaphthalene] | 6.08 | 6.13 | 5.94 | 6.03 | 5.99 | 6.02 | 6.02 | > 200
O=C(OCCCCCCOC(=O)c1ccccc1)c1ccccc1 [1,6-Hexanediol dibenzoate] | 5.83 | 5.82 | 5.69 | 5.68 | 5.63 | 5.49 | 5.57 | 50
CCCCC(CC)COC(=O)c1ccccc1C(=O)O (stereo unspecified) [Phthalic acid, mono-2-ethylhexyl ester] | 5.83 | 5.76 | 5.77 | 6.08 | 6.11 | 6.44 | 5.88 | > 200
Cc1c(-c2cccnc2)c2ccccc2n1CCCCC(=O)O [5-[2-methyl-3-(pyridin-3-yl)-1H-indol-1-yl]pentanoic acid] | 5.93 | 5.89 | 5.78 | 5.84 | 5.83 | 5.87 | 5.7 | > 200
COC(=O)CCCC(=O)OC [Dimethyl glutarate] | 5.91 | 5.94 | 5.9 | 6.02 | 6.01 | 6.04 | 5.78 | > 200
Cc1ccc(N(C)C)cc1 [N,N,4-Trimethylaniline] | 5.82 | 5.87 | 5.94 | 5.79 | 5.76 | 5.72 | 5.73 | > 200
